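Protocol summary: plate cells (96-well), add compound at 5 concentrations, incubate 48 h, interpolate endpoints linearly. TGI: total growth inhibition.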
Legend:
Test in all cases: DTP human tumour cell line panel, 48 h
MDA-N = tested on: MDA-N
RXF 393 renal = tested on: RXF 393 renal
NCI-H23 lung = tested on: NCI-H23 lung
HL-60(TB) leukemia = tested on: HL-60(TB) leukemia
OVCAR-3 ovarian = tested on: OVCAR-3 ovarian
RPMI-8226 leukemia = tested on: RPMI-8226 leukemia
COLO 205 colon = tested on: COLO 205 colon
SK-MEL-5 melanoma = tested on: SK-MEL-5 melanoma
CAKI-1 renal = tested on: CAKI-1 renal
UO-31 renal = tested on: UO-31 renal
M14 melanoma = tested on: M14 melanoma
SNB-75 CNS = tested on: SNB-75 CNS
MALME-3M melanoma = tested on: MALME-3M melanoma
NCI-H522 lung = tested on: NCI-H522 lung
SR leukemia = tested on: SR leukemia
A549 NSCLC = tested on: A549 NSCLC
OVCAR-4 ovarian = tested on: OVCAR-4 ovarian
MDA-MB-231 breast = tested on: MDA-MB-231 breast
SN12C renal = tested on: SN12C renal
HCT-15 colon = tested on: HCT-15 colon
T-47D breast = tested on: T-47D breast
BT-549 breast = tested on: BT-549 breast
A498 renal = tested on: A498 renal
CCRF-CEM leukemia = tested on: CCRF-CEM leukemia
HCT-116 colon = tested on: HCT-116 colon
SK-MEL-2 melanoma = tested on: SK-MEL-2 melanoma
786-0 renal = tested on: 786-0 renal
NCI-H460 lung = tested on: NCI-H460 lung
SNB-19 CNS = tested on: SNB-19 CNS
SF-268 CNS = tested on: SF-268 CNS
SF-539 CNS = tested on: SF-539 CNS
HS 578T breast = tested on: HS 578T breast
SK-MEL-28 melanoma = tested on: SK-MEL-28 melanoma
PC-3 prostate = tested on: PC-3 prostate
MCF7 breast = tested on: MCF7 breast
HT29 colon = tested on: HT29 colon
DU-145 prostate = tested on: DU-145 prostate
MDA-MB-435 = tested on: MDA-MB-435
LOX IMVI melanoma = tested on: LOX IMVI melanoma
HOP-62 NSCLC = tested on: HOP-62 NSCLC
SK-OV-3 ovarian = tested on: SK-OV-3 ovarian
OVCAR-5 ovarian = tested on: OVCAR-5 ovarian
HOP-92 NSCLC = tested on: HOP-92 NSCLC
SF-295 CNS = tested on: SF-295 CNS
HCC-2998 colon = tested on: HCC-2998 colon
SW-620 colon = tested on: SW-620 colon
TK-10 renal = tested on: TK-10 renal
UACC-257 melanoma = tested on: UACC-257 melanoma
K-562 leukemia = tested on: K-562 leukemia
IGROV1 ovarian = tested on: IGROV1 ovarian
EKVX NSCLC = tested on: EKVX NSCLC
U251 CNS = tested on: U251 CNS
UACC-62 melanoma = tested on: UACC-62 melanoma
NCI/ADR-RES ovarian = tested on: NCI/ADR-RES ovarian
MOLT-4 leukemia = tested on: MOLT-4 leukemia
KM12 colon = tested on: KM12 colon
ACHN renal = tested on: ACHN renal
NCI-H226 lung = tested on: NCI-H226 lung

**Q.** What does the source list for `CN=c1sc2nc(C#N)c(C#N)nc2n1C`?
**A.** TGI (MDA-N): > 58.3 µM; TGI (RXF 393 renal): 40.5 µM; TGI (NCI-H23 lung): 37.9 µM; TGI (HL-60(TB) leukemia): > 40.4 µM; TGI (OVCAR-3 ovarian): 72.1 µM; TGI (RPMI-8226 leukemia): > 84.9 µM; TGI (COLO 205 colon): 32.1 µM; TGI (SK-MEL-5 melanoma): 35.4 µM; TGI (CAKI-1 renal): 60.3 µM; TGI (UO-31 renal): 51.3 µM; TGI (M14 melanoma): > 58.9 µM; TGI (SNB-75 CNS): 51.4 µM; TGI (MALME-3M melanoma): 36.4 µM; TGI (NCI-H522 lung): 31.5 µM; TGI (SR leukemia): > 79.6 µM; TGI (A549 NSCLC): 33.9 µM; TGI (OVCAR-4 ovarian): 49.1 µM; TGI (MDA-MB-231 breast): > 80.7 µM; TGI (SN12C renal): > 100 µM; TGI (HCT-15 colon): 41.2 µM; TGI (T-47D breast): > 91.7 µM; TGI (BT-549 breast): 62.8 µM; TGI (A498 renal): 35.2 µM; TGI (CCRF-CEM leukemia): > 100 µM; TGI (HCT-116 colon): 36 µM; TGI (SK-MEL-2 melanoma): 40.7 µM; TGI (786-0 renal): > 60 µM; TGI (NCI-H460 lung): 35.7 µM; TGI (SNB-19 CNS): > 62.6 µM; TGI (SF-268 CNS): > 94.7 µM; TGI (SF-539 CNS): > 70.9 µM; TGI (HS 578T breast): > 100 µM; TGI (SK-MEL-28 melanoma): > 85 µM; TGI (PC-3 prostate): > 100 µM; TGI (MCF7 breast): 38.1 µM; TGI (HT29 colon): 26 µM; TGI (DU-145 prostate): > 85.4 µM; TGI (MDA-MB-435): 52.1 µM; TGI (LOX IMVI melanoma): 46.5 µM; TGI (HOP-62 NSCLC): 42.1 µM; TGI (SK-OV-3 ovarian): 49.2 µM; TGI (OVCAR-5 ovarian): 51.6 µM; TGI (HOP-92 NSCLC): 37.7 µM; TGI (SF-295 CNS): 45.5 µM; TGI (HCC-2998 colon): 55.8 µM; TGI (SW-620 colon): 36.2 µM; TGI (TK-10 renal): > 63.4 µM; TGI (UACC-257 melanoma): > 100 µM; TGI (K-562 leukemia): > 60 µM; TGI (IGROV1 ovarian): 53.4 µM; TGI (EKVX NSCLC): 73.8 µM; TGI (U251 CNS): 44.9 µM; TGI (UACC-62 melanoma): 40.6 µM; TGI (NCI/ADR-RES ovarian): 59.1 µM; TGI (MOLT-4 leukemia): > 100 µM; TGI (KM12 colon): > 67.8 µM; TGI (ACHN renal): 60.2 µM; TGI (NCI-H226 lung): 38.8 µM

From PubChem BioAssay (NCI)
